We go through two molecules from PMC6219668 (Oncotarget, 2018).

Structures are written as SMILES. Like-named read-outs stand apart in the source and are kept apart here.

The test system of one data set is T47D. Description: cells. Particulars: Homo sapiens, ER+ BC, dominant CDK4, read-out: IC50, mean ± SD. The class given is cell-based.
The next data set concerns REH. Put plainly: cells. As to conditions: Homo sapiens, ALL, dominant CDK6, read-out: IC50, mean ± SD. The data set is classed as cell-based.
For the next data set, the system named is NCI-H441. Put plainly: cells. Particulars: Homo sapiens, NCI-H441, 72 h. The data set is classed as cell-based.
In data set [1] the test system is HCC-827. Description: cells. The data set is classed as cell-based. As to conditions: Homo sapiens, HCC827; HCC-827, 72 h.
The test system of a further data set is MGH049. Description: cells. The data set is classed as cell-based. Particulars: MGH049, 72 h.
The subject of a further data set is A549. Put plainly: cells. The data set is classed as cell-based. As to conditions: Homo sapiens, A549, 72 h.
The format of data set [2] is in vivo.
The subject of the next data set is NCI-H3122. Description: cells. The class given is cell-based. As to conditions: Homo sapiens, NCI-H3122, 72 h.
Data set [3] deals with JeKo-1 mantle cell lymphoma cells. Further details: method as in Brain C et al, manuscript in preparation. As to conditions: RB1-proficient; ref Brain C et al, manuscript in preparation; cited from earlier work.
The subject of another data set is UACC-62. Description: cells. The data set is classed as cell-based. Particulars: Homo sapiens, UACC-62, 72 h.
Another data set in a line: Pharmacokinetics in mice. The data set is classed as in vivo. Particulars: 75 mg/kg once daily, data not shown.
Another data set concerns SNU-761. Put plainly: cells. The data set is classed as cell-based. Particulars: SNU-761, 72 h.
Another data set relates to NCI-H23. Put plainly: cells. The data set is classed as cell-based. Particulars: Homo sapiens, NCI-H23, 72 h.
Data set [4] relates to SK-MEL-2. Description: cells. The data set is classed as cell-based. Particulars: Homo sapiens, SK-MEL-2, 72 h.
In a further data set the test system is HBRX1004. The class given is in vivo. Particulars: HBRX1004, Breast, TNBC, Rb present; 250 mg/kg qd.
In the next data set the test system is Hs 944.T. The class given is in vivo. Particulars: Melanoma.
For the next data set, the system named is SK-MEL-28. Put plainly: cells. The data set is classed as cell-based. Particulars: Homo sapiens, SK-MEL-28, 72 h.
The next data set concerns NCI-H1573. Description: cells. The class given is cell-based. As to conditions: Homo sapiens, NCI-H1573, 72 h.
The test system of a further data set is WBCs and ANC. Description: Blood counts in JeKo-1 rat model. The data set is classed as in vivo. Particulars: all treatment groups compared with vehicle. An excerpt:
To further characterize the pharmacokinetic/pharmacodynamic (PK/PD) relationship and simultaneously compare antitumor effects with white blood cell (WBC) counts in host animals, we used the JeKo-1 xenograft model in nude rats. […]. We observed dose-proportional increases in both drug exposure and target inhibition (Supplementary Table 5). […]. This dose-proportional target inhibition correlated with dose-dependent antitumor efficacy in the same JeKo-1 xenograft model.

For the next data set, the system named is PC-14. Description: cells. As to conditions: Homo sapiens, PC-14, 72 h. The class given is cell-based.
The test system of a further data set is TE-8. Description: cells. The class given is cell-based. Particulars: Homo sapiens, TE-8, 72 h.
Another data set relates to MDA-MB-415. Put plainly: cells. The class given is cell-based. As to conditions: Homo sapiens, MDA-MB-415, 72 h.
Data set [5] has as its system SK-MEL-2. Description: cells. The class given is cell-based. Particulars: Homo sapiens, SK-MEL-2, 72 h. This is another data set of the same source.
In another data set the test system is NCI-H1975. Description: cells. The class given is cell-based. Particulars: Homo sapiens, NCI-H1975, 72 h.
A further data set concerns KYSE30. Description: cells. The data set is classed as cell-based. Particulars: Homo sapiens, KYSE-30; KYSE30, 72 h.
A further data set deals with NCI-H2228. Put plainly: cells. The data set is classed as cell-based. Particulars: Homo sapiens, NCI-H2228, 72 h.
Data set [6] deals with VCAP. Put plainly: cells. As to conditions: Homo sapiens, 72 h. The data set is classed as cell-based.
The test system of a further data set is CDK5/p25. Particulars: cited from earlier work.
The subject of the next data set is T-47d. Description: cells. As to conditions: Homo sapiens, T47D, 72 h. The class given is cell-based.
In the next data set the test system is MGH051. Description: cells. The data set is classed as cell-based. Particulars: MGH051, 72 h.
Another data set concerns CHP-212. Description: cells. The data set is classed as cell-based. Particulars: Homo sapiens, CHP-212, 72 h.
The subject of a further data set is BT-483. Put plainly: cells. As to conditions: Homo sapiens, BT-483, 72 h. The class given is cell-based.
Data set [7] deals with VCAP. Put plainly: cells. The data set is classed as cell-based. Particulars: Homo sapiens, 72 h. The source holds these as a separate data set.
For another data set, the system named is Rb phosphorylation. Description: animal or person. The class given is in vivo. Particulars: Rattus norvegicus, JeKo-1, read-out: ppRb inhibition, range.
Another data set deals with HBCx-11. The class given is in vivo. Particulars: HBCx-11, Breast, TNBC, Rb present; 125 mg/kg bid × 21.
Another data set deals with MEL-JUSO. The data set is classed as in vivo. Particulars: Melanoma.
For the next data set, the system named is HPAX1199. The data set is classed as in vivo. Particulars: HPAX1199, Pancreatic, Rb present; 250 mg/kg qd.
In the next data set the test system is NB1. Put plainly: cells. The data set is classed as cell-based. Particulars: Homo sapiens, NB1, 72 h.
Data set [8] relates to HCC-827. Put plainly: cells. Particulars: Homo sapiens, HCC827; HCC-827, 72 h. The data set is classed as cell-based. The source holds these as a separate data set.
A further data set has as its system A-375. Put plainly: cells. Particulars: Homo sapiens, A-375, 72 h. The class given is cell-based.

Usually IC50 stands for the point on the concentration scale where inhibition reaches its midpoint. Take `CC(=O)c1c(C)c2cnc(Nc3ccc(N4CCNCC4)cn3)nc2n(C2CCCC2)c1=O` [Palbociclib, reference compound]: the figures for the IC50 in the data set on T47D and in the data set with REH were 66 ± 19 µM and 60 ± 17 µM, respectively.

Usually inhibition stands for the share of the control response that was lost under treatment. For `CN(C)C(=O)c1cc2cnc(Nc3ccc(N4CCNCC4)cn3)nc2n1C1CCCC1` [Ribociclib, 7-cyclopentyl-2-(5-piperazin-1-yl-pyridin-2-ylamino)-7H-pyrrolo[2,3-d]pyrimidine-6-carboxylic acid dimethylamide], the IC50 with NCI-H441 was 4.74 µM; with HCC-827 [1], 6.12 µM; in the data set with MGH049, above 10 µM; with A549, 1.2 µM; in the data set on NCI-H3122, 0.51 µM; with UACC-62 it was above 10 µM. Besides, the IC50 in the data set on SNU-761 is above 10 µM; in the data set on NCI-H23, above 10 µM; in the data set on SK-MEL-2 [4] it was above 10 µM; in the data set with SK-MEL-28, 0.98 µM; with NCI-H1573, 0.61 µM; in the data set on PC-14, 6.98 µM. Besides, the IC50 with TE-8 was above 10 µM; in the data set on MDA-MB-415, above 10 µM; in the data set with SK-MEL-2 [5] it was 4.81 µM; in the data set with NCI-H1975 it was 3.53 µM; with KYSE30, 4.06 µM; in the data set on NCI-H2228, above 10 µM. Besides, the IC50 is above 10 µM in the data set on VCAP [6]; above 10 µM in the data set with T-47d; 0.28 µM with MGH051; 0.3 µM with CHP-212; above 10 µM in the data set on BT-483; above 10 µM in the data set on VCAP [7]. Also, the IC50 with NB1 is 0.37 µM; with HCC-827 [8], above 10 µM; in the data set with A-375, 2.68 µM. Moreover, the body weight loss entry in data set [2] (150 mg/kg) is given as “only minimal transient body weight loss”. Also, the tolerability entry in data set [2] (all ribociclib doses, no significant body weight loss) is recorded as “well tolerated”. Further, the “effect on pRb and cell cycle” value in data set [3] was “dephosphorylation of phosphorylated Rb (pRb) and concomitant G1 cell-cycle arrest”. The “area under the concentration-time curve” value in the data set “Pharmacokinetics in mice” is listed as ~12,500 ng/mL × h. Moreover, in the data set “Pharmacokinetics in mice”, the maximum serum concentration is around 2700 ng/mL. In addition, the T/C came to 10 in the data set on HBRX1004; 36 with Hs 944.T (150 mg/kg qd); 19 in the data set with Hs 944.T (250 mg/kg qd); 52 with HBCx-11; 47 in the data set on MEL-JUSO (75 mg/kg qd); 32 in the data set with MEL-JUSO (150 mg/kg qd). Further, the T/C in the data set on MEL-JUSO (250 mg/kg qd) was determined as 2; in the data set on HPAX1199 it was 18. In addition, the absolute neutrophil counts result in the data set with WBCs and ANC is listed as “reduced”. The “total WBC counts” value in the data set on WBCs and ANC is listed as “reduced”. The “activity against CDK5/p25” value in the data set with CDK5/p25 was “far less active”. Further, the inhibition at 75 mg/kg in the data set with Rb phosphorylation lay within 75 to 90%. Moreover, the inhibition at 150 mg/kg in the data set with Rb phosphorylation was 97 to 100%.
